{
  "source": "patent US9388215B2",
  "about": "“Compositions and methods of using islet neogenesis peptides and analogs thereof” (SHENZHEN HIGHTIDE BIOPHARMACEUTICAL, LTD., priority 2013, dated 2016)",
  "key": {"normal C57BL/6J mice [1]": {"test_system": "normal C57BL/6J mice", "assay": "Induction of extra islet insulin positive β cell clusters (EIC) in normal C57BL/6J mice", "assay_type": "in vivo, mouse", "procedure": "After a 1-week acclimation, female C57BL/6J mice were randomly divided into 6 groups (n=5 per group). The control group received 10 mL/kg sterile normal saline via subcutaneous injection for 10 consecutive days. The other five groups received INGAP-PP (Peptide 1) or INGAP-PP analogs Peptide 12, Peptide 16, Peptide 29 or Peptide 31 at a dose of 50 mg/kg or 5 mg/kg per day, respectively, for the same period. On day 11, the pancreas was removed from each animal, cleared of fat and lymph nodes, weighed, and fixed in 10% neutral buffered formalin (NBF) for no longer than 24 hours before processing for morphometric analysis.\nImmunohistochemistry analysis was used to assess the islet neogenic activities of peptides by measuring the number and area of extra islet insulin positive β cell clusters (EIC) of pancreatic tissues harvested from each individual group post 10 day treatment. EIC is indicative of islet neogenesis, as previously described by Lipsett and Finegood (Diabetes 51:1834-1841 (2002))."}, "[2]": {"assay": "Peptide stability in culture medium (F-12K, 37° C., HPLC)", "assay_type": "physicochemical", "conditions": "F-12K medium, 0.25 mg/mL, 0-72 hours, FIG. 2, FIG. 11", "procedure": "To determine the stability of peptides in culture medium, a certain amount of selected peptides was accurately weighed and dissolved in distilled water to 5 mg/mL as a stock solution. The stock solution was diluted to 0.25 mg/mL with F-12K medium (Gibco-BRL, Gaithersburg, Md., USA) as working solution. A volume of 100 μL of each working solution was transferred into individual sample vials. The sample vials were incubated in a 37° C. incubator for 0, 24, 48 and 72 hours before being analyzed and quantitated by HPLC. […]"}, "[3]": {"test_system": "STZ induced diabetic mice", "assay": "Efficacy in streptozotocin (STZ) induced diabetic mice model", "assay_type": "in vivo, mouse", "conditions": "5 mg/kg or 25 mg/kg for 20 days", "procedure": "After acclimatization in the animal facility for one week, 6-8 weeks old C57BL/6J mice were administered low dose STZ at 40 mg/kg in citrate buffer for 5 consecutive days to establish a T1D animal model. Mice with blood glucose greater than 16.7 mmol/L at 5 days post last STZ injection were included in the study. These mice were then treated with INGAP-PP (Peptide 1) or Peptide 7 at the doses of 5 mg/kg (2.5 mg/kg, bid (twice a day)) or 25 mg/kg (12.5 mg/kg, bid) for 20 days before sacrifices. Two additional groups of diabetic mice were administered either saline or a peptide (Peptide 3) composed of a scrambled sequence of amino acids from Peptide 1 as control groups. Blood glucose and insulin levels were measured, and 20 days post the last dosing of test agents, an oral glucose tolerance test (OGTT) was performed in 6 hour fasted animals to determine the effect of Peptide 1 and Peptide 7. Blood samples obtained from the tail cut for glucose determination were detected with an ACCU-CHEK™ glucometer (Roche, ACCU-CHEK® Active), and insulin levels were determined with Rat/Mouse Insulin Elisa kit (Millipore, Billerica, Mass. USA). For the OGTT, after the measurement of the basal glucose concentration (T=−30 min), mice received an oral glucose challenge at 2 g/kg and glucose values were determined by glucometer at 0, 15, 30, 60, 90 and 120 min."}, "normal C57BL/6J mice [4]": {"test_system": "normal C57BL/6J mice", "assay": "Induction of small β-cell clusters in normal C57BL/6J mice (islet size distribution)", "assay_type": "in vivo, mouse", "procedure": "After a 1-week acclimation, C57BL/6J female mice were randomly divided into 4 groups. The two control groups received either 10 mL/kg sterile normal saline (n=4) or scrambled peptide (Peptide 3, 25 mg/kg) (n=5) via subcutaneous injection for 10 days. The other two groups received INGAP-PP (Peptide 1) or INGAP-PP analog Peptide 7 at a dose of 25 mg/kg per day respectively (n=7 per group) for the same period. Body weight and 6 hour fasting blood glucose were measured before treatment and after the last dosing of treatment. Plasma and pancreatic insulin were also measured at the end of the study. On day 11, the pancreas was removed from each animal, cleared of fat and lymph nodes, weighed, and fixed in 10% neutral buffered formalin (NBF) for no longer than 24 hours before processing for morphometric analysis.\nImmunohistochemistry analysis was used to determine pancreatic islet size distribution."}},
  "data": [
    {"substance": "Ac-IGLHDPSHGTLPNGS-NH2 [Peptide 31, Ac-IGLHDPSHGTLPNGS-NH2]", "values": [
      {"measurement": "islet neogenesis efficacy relative to INGAP-PP", "setting": "normal C57BL/6J mice [1]; analog 5 mg/kg vs INGAP-PP 50 mg/kg, 10 days", "value": "comparable or improved efficacy was achieved at a dose one tenth of INGAP-PP"},
      {"measurement": "number of extra islet cluster (EIC)", "setting": "normal C57BL/6J mice [1]; female C57BL/6J mice, 10 days sc, INGAP-PP 50 mg/kg, analogs 5 mg/kg per day, FIG. 9A", "value": "statistically greater than that of INGAP-PP (Peptide 1) (50 mg/kg) treated group"},
      {"measurement": "total area of EIC", "setting": "normal C57BL/6J mice [1]; female C57BL/6J mice, 10 days sc, INGAP-PP 50 mg/kg, analogs 5 mg/kg per day, FIG. 9B", "value": "statistically greater than that of INGAP-PP (Peptide 1) (50 mg/kg) treated group"}
    ]},
    {"substance": "Ac-IGLHDPSHGTLPNGS-OH [Peptide 16, Ac-IGLHDPSHGTLPNGS-OH]", "values": [
      {"measurement": "stability in culture medium", "setting": "[2]", "value": "significantly more stable than INGAP-PP peptide in culture medium"}
    ]},
    {"substance": "H-IGLHDPSHGTLPNGS-OH [Peptide 1, H-IGLHDPSHGTLPNGS-OH, reference compound]", "values": [
      {"measurement": "effect on body weight or pancreas weight", "setting": "[3]", "value": "did not affect body weight or pancreas weight"},
      {"measurement": "number of islets, islet size (Log [μm^2]) ranging from 2.1 to 0.7", "setting": "normal C57BL/6J mice [4]; normal female C57BL/6J mice, 25 mg/kg per day, 10 days, versus naive/control group, FIG. 7", "value": "only observed in islet size of 2.1"},
      {"measurement": "effect on body weight, blood glucose, plasma insulin, pancreas insulin, pancreas weight", "setting": "normal C57BL/6J mice [4]; normal mice, 25 mg/kg per day sc for 10 days, compared to saline group", "value": "did not affect body weight, blood glucose, plasma insulin, pancreas insulin, or pancreas weight"}
    ]}
  ]
}
